Measured values: patent US4447610A, “10-Substituted 5-cyanomethylene-dibenzo[A,B]-cycloheptenes, their preparations, and therapeutic agents containing these compounds” (BASF Aktiengesellschaft, priority 1980, dated 1984)

Key:
[1] = tested on: orientation hypermotility; assay: Sedative action: decrease in orientation hypermotility of mice; type: in vivo, female NMRI mice; settings: for ED50: Mus musculus, 0.5 h, mice, oral, 30 min after administration, measured for 30 min, read-out: Sedative action ED 50%; for Sedative action R.A. (relative activity): clozapine = 1.00; for sedative-hypnotic effects (in words): compared with clozapine and perlapine
Experimental: 4-8 groups of 3 female NMRI mice are given the compound orally. The orientation hypermotility induced by a new environment is determined photoelectrically, 30 minutes after administration of the compound, for a period of 30 minutes.
The ED50% is the dose which produces a decrease in orientation hypermotility by 50%, compared to control animals treated with placebo.

[2] = tested on: tonic extensor reflex on the rabbit gastrocnemius; assay: Muscle-relaxing action: tonic extensor reflex on the rabbit gastrocnemius; type: in vivo; settings: for Muscle relaxation R.A. (relative activity): clozapine = 1.00; for muscle-relaxing properties (in words): rabbit, in vivo
Text: 2. Muscle-relaxing action The measurement is based on quantifying the tonic extensor reflex on the rabbit gastrocnemius (Teschendorf et al., Arch. Pharmacol. exp. Path. 266 (1970), 462). The rabbit is fixed in a special apparatus which permits bending the paw at the talocalcanean joint in a defined and reproducible manner. As a result of this bending, a tonic extensor reflex is triggered in the […]. The electrical activity of the muscle during contraction is registered and the individual pulses are counted. The extension (duration 5 s) is repeated at intervals of one minute. After a constant number of pulses has been reached (constituting the control value), the test substance is administered intravenously. The number of pulses after administration is related to the previous value. For each dose investigated, 4-6 animals are used. The ED 50% is the dose which reduces the muscle activity to half, based on the initial value.

death from physostigmine = assay: Anticholinergic action: protection against death from physostigmine (antiphysostigmine test); type: in vivo, female NMRI mice; settings: Mus musculus; mice, oral, 30 min before physostigmine 0.825 mg/kg s.c.; read-out: Anticholinergic action ED 50%
Experimental: 4. Anticholinergic action
Groups of 10 female NMRI mice are given physostigmine subcutaneously, at a lethal dose (0.825 mg/kg). The test substances are administered orally 30 minutes before the administration of physostigmine.
The ED 50% is determined as the dose of compound which protects 50% of the animals against death from physostigmine.

Acute toxicity = settings: mouse, in vivo, ip; mice, intraperitoneal; read-out: Toxicity LD 50
Experimental: Groups of 5-10 female NMRI mice are given the compounds intraperitoneally. The LD 50 is determined as the dose after which 50% of the treated animals die.

[3] = tested on: tryptamine-induced clonic front paw movements; assay: Antitryptamine action: inhibition of tryptamine-induced front paw movements; type: in vivo, rats; settings: for ED50: Rattus norvegicus, ip, rats, intraperitoneal, 30 min before tryptamine.HCl 16 mg/kg i.v., read-out: Antitryptamine action ED 50%; for Antitryptamine action R.A. (relative activity): clozapine = 1.00
Experimental: 3. Antitryptamine action Tryptamine.HCl (16 mg/kg administered intravenously) regularly causes the following symptoms in rats: clonic front paw movements, back-arching and retropulsion, as well as mandibular movements (Tedeschi et al., J. Pharmacol. Exp. Ther. 126 (1959), 223). The test substances are administered intraperitoneally 30 minutes before the tryptamine. […] The mean inhibitory dose (ED 50%) is determined, by means of Probit analysis, as the dose which prevents the symptom in half the animals.

Row | SMILES | ED50 [1] [mg/kg] | Sedative action R.A. (relative activity) [1] | Muscle relaxation R.A. (relative activity) [2] | ED50 (death from physostigmine) [mg/kg] | LD50 (Acute toxicity) [mg/kg] | ED50 [3] [mg/kg] | Antitryptamine action R.A. (relative activity) [3] | sedative-hypnotic effects (in words) [1] | muscle-relaxing properties (in words) [2] | antimonaminergic action, tryptamine antagonism (in words) ([3]; compared with reference substances)
1 | CN1CCN(C2=Cc3cc(Cl)ccc3C(=CC#N)c3ccccc32)CC1 [Example 4, cis- and trans-2-Chloro-5-cyanomethylene-10-(4-methylpiperazin-1-yl)-dibenzo[a,d]-cycloheptene] | 2 | 2.37 | 10.00 | > 21.5 | – | – | – | – | – | –
2 | N#CC=C1c2ccccc2C=C(N2CCN(CCO)CC2)c2ccccc21 (mixture of isomers) [Example 7, cis,trans-5-Cyanomethylene-10-(N-β-hydroxyethyl-piperazin-1-yl)-dibenzo[a,d]-cycloheptene.1/2 H2 O] | 0.97 | 4.89 | 3.54 | > 21.5 | > 100 | – | – | – | – | –
3 | CN1CCN(C2=Nc3ccccc3Cc3ccccc32)CC1 [Perlapine, reference compound] | – | – | – | > 21.5 | – | 4.1 | 1.22 | – | – | –
4 | CCN1CCN(C2=Cc3ccccc3/C(=C/C#N)c3ccccc32)CC1 [Example 5a, cis-5-cyanomethylene-10-(4-ethyl-piperazin-1-yl)-dibenzo[a,d]-cycloheptene] | 1 | 4.74 | 4.60 | > 21.5 | > 100 | 11.2 | 0.45 | – | – | –
5 | CN1CCN(C2=Cc3cc(Cl)ccc3/C(=C/C#N)c3ccccc32)CC1 [Example 4a, cis-5-cyanomethylene-2-chloro-10-(4-methyl-piperazin-1-yl)-dibenzo[a,d]-cycloheptene] | 0.44 | 10.77 | 10.00 | > 21.5 | – | 0.7 | 7.14 | particularly pronounced | particularly pronounced | markedly more pronounced
6 | C[N+]1([O-])CCN(C2=Cc3ccccc3C(=CC#N)c3ccccc32)CC1 (mixture of isomers) [Example 12, cis,trans-5-Cyanomethylene-10-(4-methyl-4-oxy-piperazin-1-yl)-dibenzo[a,d]-cycloheptene.21/2 H2 O] | 1.4 | 3.39 | 0.46 | > 21.5 | > 100 | 12.5 | 0.40 | – | – | –
7 | CN1CCN(C2=Cc3ccccc3/C(=C/C#N)c3ccccc32)CC1 [Example 1a] | 0.8 | 5.92 | 54.12 | > 10 | – | 8.6 | 0.58 | particularly pronounced | particularly pronounced | –
8 | CN1CCN(C2=Cc3ccccc3C(=CC#N)c3ccccc32)CC1 [Example 1, cis- and trans-5-Cyanomethylene-10-(4-methyl-piperazin-1-yl)-dibenzo[a,d]-cycloheptene] | 0.96 | 4.94 | 7.19 | > 10 | 324 | – | – | – | – | –
9 | CCN1CCN(C2=Cc3ccccc3C(=CC#N)c3ccccc32)CC1 (mixture of isomers) [Example 5, cis,trans-5-Cyanomethylene-10-(4-ethyl-piperazin-1-yl)-dibenzo[a,d]-cycloheptene] | 1.38 | 3.43 | 3.54 | > 21.5 | 287 | 18.6 | 0.27 | – | – | –
10 | CN1CCN(C2=Nc3cc(Cl)ccc3Nc3ccccc32)CC1 [Clozapine, reference compound] | – | 1.00 | – | 14.1 | – | 5 | 1.00 | – | – | –
